Columns and labels:
A375 melanoma cells = assay: Cell number growth inhibition assay; assay type: cell-based, human
Experimental: (§1) A number of cancer cell lines were tested to determine whether SCD1 protein expression correlates with growth inhibition of an SCD1 inhibitor in human cancer cell lines.
(§2) Cells (20,000/ml) were plated in 12 well cell culture plates, allowed to attach and treated with the indicated dose of SCD1 inhibitor ([…]) or standard of care (gemcitabine). Cell number was counted using a Coulter Counter. As show in FIG. 7, the data are expressed as percent of DMSO control. Each value represents triplicates. Western analysis for SCD1 protein expression was performed on each cell line with beta-actin as the loading control.
(§3) The following cell lines were studied using a similar method as that described above.

Mela 11 melanoma cells = assay: Cell number growth inhibition assay; assay type: cell-based, human
Experimental: as §1, §2, §3

A498 ccRCC xenografts [1] = assay: Western blot of CHOP in xenograft tumor tissue; assay type: in vivo, athymic nude (nu/nu) mice; conditions: normalized to β-actin, tumor tissue samples
Experimental: (§4) Protein extracts, electrophoresis, and membrane transfers were prepared as previously described (Copland J A, Marlow L A, Kurakata S, Fujiwara K, Wong A K, Kreinest P A, et al. Novel highaffinity PPARgamma agonist alone and in combination with paclitaxel inhibits human anaplastic thyroid carcinoma tumor growth via p21WAF1/CIP1. Oncogene. 2006; 25:2304-17). Primary antibodies included SCD1, PARP, DDIT3, BiP, sXBP1, and β-actin. A Supersignal chemiluminescent kit was used to perform detection.

A498 ccRCC xenografts [2] = assay: IHC analysis of resected xenograft tumors
Experimental: The TMAs were mounted on slides from paraffin-embedded blocks according to IHC procedure and samples were blocked with Diluent that contained Background Reducing Components (Dakocytomation) for 30 min and then probed for SCD1, Ki67, Caspase-3, CD31, phospho-mTOR, DDIT3, and XBP1. […] Stain scoring was done using algorithms generated with Imagescope software created by a histologist. H-scores were calculated based upon signal intensity (0-3+) using the formula: [(1+%×1)+(2+%×2)+(3+%×3)], intensity (I)-scores were calculated by dividing signal intensity by area, and nuclear (N)-scores were calculated by dividing % positive nuclei by total nuclei examined per area. Cases where insufficient tumor tissue presented were excluded from the study. 20× images were obtained using Scanscope XT and Imagescope software.
IHC analysis of tumors resected from each treatment group was analyzed for proliferation, angiogenesis, and cell death (FIG. 6B).

[3] = tested on: A498, Caki1, Caki2, and ACHN ccRCC cell lines; assay: Temsirolimus dose out, cell proliferation; assay type: cell-based, human; conditions: monotherapy, four ccRCC cell lines; no dose response could be determined
Experimental: (§5) Drug stocks were prepared in DMSO. Monotherapeutic treatment identified drug dose-response. […] Temsirolimus dosing was performed as described in the text.
After identifying appropriate cell proliferative dose responses for pazopanib and sunitinib in four ccRCC cell lines including A498, Caki1, Caki2, and ACHN, both TKIs were dosed in combination with A939572 up to approximately the IC50 dose for each drug in the Caki1 and the A498 cell lines. […] Combinatorial treatments were therefore done using a fixed dose of Tem (0.1 nM, 1 nM, and 10 nM) combined with a dose range of A939572 up to the IC50 in Caki1, A498, Caki2 and ACHN cells.

SCD1 [4] = conditions: breast cancer cells, previously reported; cited from earlier work
[5] = tested on: SNU449 liver cancer cells; assay: Cell number growth inhibition assay; assay type: cell-based, human; conditions: SNU449 liver cancer cells
Experimental: as §1, §2, §3

[6] = tested on: Caki1 and A498 ccRCC cell lines; assay: Proliferation assay of shSCD lentiviral infected cells; assay type: cell-based, human; conditions: vs NT control or treated normal kidney cells (K359N and K360N), counted after five days
Experimental: as §5
(§6) MISSION shRNA pLK0.1 constructs were used to make self-inactivating shRNA lentiviruses for human SCD1 (clones: NM_005063.3-1200s1c1[shSCD1200], NM_005063.3-780s1c1[shSCD780]), and a non-target (NT) random scrambled sequence control (SHC002). Transfection reagents Lipofectamine 2000 and ViraPower were used to generate lentiviruses using HEK293FT viral progenitor cells. ccRCC and NRE cells were incubated with lentivirus plus 5 μg/mL polybrene for 24 hrs prior to clonal selection with Puromycin.
(§7) Media alone and BSA supplemented media served as control groups. Proliferation assay of NT control versus shSCD780 infected Caki1 and A498 cells cultured in media with or without OABSA were counted after five days. […] SCD1 knockdown by lentiviral infection was confirmed at the protein level (FIG. 3B).

SCD1 [7] = assay: Lentiviral shRNA knockdown of SCD1 in ccRCC cell lines (Caki1 and A498); assay type: cell-based, human
Experimental: as §6
(§8) An RNAqueous Midi Kit was utilized to extract and purify RNA from cell lines. Human tissue RNA was prepared using TRIzol® per manufacturer's protocol followed by purification using the RNAqueous Midi Kit. The O.D. 260/280 ratio of the mRNA was at least 1.8 and the 18s/28s bands were verified on a 1% agarose gel. cDNA was prepared from purified RNA samples using High Capacity cDNA Reverse Transcriptase Kit per manufacturer's instruction. TaqMan®Fast Universal PCR Master Mix and TaqMan®FAMTM dye-labeled probes including POLR2A (Hs00172187_m1) (normalization control), SCD1 (Hs01682761_m1), HSPA5 (Hs99999174_m1), CEBPβ (CEBPB Hs00270923_s1), GADD45A (Hs00169255_m1), DDIT3 (Hs01090850_m1), and HERPUD1 (Hs01124269_m1) were combined with prepared cDNA samples to analyze relative mRNA expression via qPCR. Fold change values were compared between normal and tumor, non-target scrambled lentiviral and target lentiviral infected, and DMSO vs. A939572 treated samples using the ΔΔCt method (Schmittgen T D, Livak K J. Analyzing real-time PCR data by the comparative C(T) method. Nat Protoc. 2008; 3:1101-8).
as §4
To determine the involvement of SCD1 expression in renal cell carcinoma proliferation, two separate lentiviral constructs were designed to express shRNA molecules having the ability to reduce SCD1 expression. The first lentiviral construct was designed to express an shRNA designated SCD780. The sequence of SCD780 was as follows: 5′-[…]-3′ (SEQ ID NO:1). The second lentiviral construct was designed to express an shRNA designated SCD1200. The sequence of SCD1200 was as follows: 5′-[…]-3′ (SEQ ID NO:2). A non-target lentiviral construct was designed as a control.

[8] = tested on: Caki1 and A498 ccRCC cell lines; assay: PARP cleavage immunoblot of shSCD lentiviral infected cells; assay type: cell-based, human
Experimental: as §6, §4, §7

SCD1 [9] = assay: Lentiviral shRNA knockdown of SCD1 in normal renal epithelial cells (K359N and K360N); assay type: cell-based, human
Experimental: as §6
as §8, with “Fold change values were compared between normal and tumor, non-target scrambled lentiviral and target lentiviral infected, and DMSO vs. A939572 treated samples using the ΔΔCt method (Schmittgen T D, Livak K J. Analyzing real-time PCR data by the comparative C(T) method. Nat Protoc. 2008; 3:1101-8).” left out

[10] = tested on: HOV TAX2 ovarian cancer cells; assay: Cell number growth inhibition assay; assay type: cell-based, human
Experimental: as §1, §2, §3

[11] = tested on: A549 nonsmall cell lung cancer cells; assay: Cell number growth inhibition assay; assay type: cell-based, human
Experimental: as §1, §2, §3

[12] = tested on: KTC3 thyroid cancer cells; assay: Cell number growth inhibition assay; assay type: cell-based, human
Experimental: as §1, §2, §3

FF1 cells = assay: Cell number growth inhibition assay; assay type: cell-based, human
Experimental: A number of cancer cell lines were tested to determine whether SCD1 protein expression correlates with growth inhibition of an SCD1 inhibitor in human cancer cell lines. […] Cell number was counted using a Coulter Counter. […] Each value represents triplicates.

T24 bladder cancer cells = assay: Cell number growth inhibition assay; assay type: cell-based, human
Experimental: as §1, §2, §3

[13] = tested on: HT1376 bladder cancer cells; assay: Cell number growth inhibition assay; assay type: cell-based, human
Experimental: as §1, §2, §3

[14] = tested on: BCJ4T bladder cancer cells; assay: Cell number growth inhibition assay; assay type: cell-based, human
Experimental: as §1, §2, §3

[15] = tested on: ATF6 luciferase reporter in Caki1 cells
Experimental: (§10) For transient transfection, Caki1 and A498 cells were transfected using Lipofectamine 2000. Cells treated with DMSO vs. A939572 or infected using shSCD780 lentiviral constructs vs. NT control were harvested after 48 hrs using Promega's Dual Luciferase assay kit per the manufacturer's protocol and luciferase activity was measured using a Veritas Luminometer; reported as relative luminescence.
(§11) Caki1 and A498 cells transfected with an ATF6 luciferase reporter (p5xATF6-GL3) were treated with a 75 nM dose of A939572 or were infected with shSCD780. Resulting luminescence was measured after 48 hours.

[16] = tested on: ATF6 luciferase reporter in A498 cells
Experimental: as §10, §11

Caki1 cells = assay: qPCR of five ER stress genes; assay type: cell-based, human
Experimental: as §8
(§9) In order to validate the specificity of ER stress induction mediated by both A939572 and shSCD780, rescue assays were performed using OA-BSA in Caki1 and A498 cells qPCR analysis of five ER stress genes identified in the gene array including BiP, CHOP, HERPUD1 (homocysteine-inducible, ER-stress inducible, ubiquitin-like-1), GADD45a (DNA damage inducible transcript 1, DDIT1), and CEBPβ (CCAAT/enhancer binding protein beta) were examined.

A498 cells = assay: qPCR of five ER stress genes; assay type: cell-based, human
Experimental: as §8, §9

Caki1 and A498 cells = assay: Western blot of ER stress markers; assay type: cell-based, human; conditions: 75 nM drug or shSCD780 knockdown, 48 hours
Experimental: as §4

Compound: Cn1nnc2c(C(N)=O)ncn2c1=O [Temodar]
- growth inhibition (A375 melanoma cells): dose responsively inhibits growth
- growth inhibition (Mela 11 melanoma cells): not

Compound: CO[C@H]1C[C@@H]2CC[C@@H](C)[C@@](O)(O2)C(=O)C(=O)N2CCCC[C@H]2C(=O)O[C@H]([C@H](C)C[C@@H]2CC[C@@H](OC(=O)C(C)(CO)CO)[C@H](OC)C2)CC(=O)[C@H](C)/C=C(\C)[C@@H](O)[C@@H](OC)C(=O)[C@H](C)C[C@H](C)/C=C/C=C/C=C/1C [Temsirolimus, temsirolimus]
- CHOP expression (ER stress) (A498 ccRCC xenografts [1]): induction of CHOP, although to a lesser extent
- phosphorylated mTOR expression (A498 ccRCC xenografts [2]; compared to the Placebo and A939572 groups): decreased expression
- angiogenesis, intensity of microvessel density (CD31) (A498 ccRCC xenografts [2]; cumulative scores not considered significant): slight decrease
- cell death, cleaved caspase-3 (CC3) (A498 ccRCC xenografts [2]; vs placebo / other groups): moderate increase
- proliferation, percent positivity of nuclear Ki67 staining (A498 ccRCC xenografts [2]; vs placebo control): decreased proliferation
- reduction in cell proliferation [3]: limited reduction in cell proliferation
- SCD1 expression (SCD1 [4]): decrease SCD1 expression

Compound: CNC(=O)c1cc(Oc2ccc(NC(=O)Nc3ccc(Cl)c(C(F)(F)F)c3)cc2)ccn1 [Sorafenib]
- effective concentrations [5]: 1 to 10 µM

Compound: SCD1200: lentiviral construct expressing shRNA against SCD1, 5′-CGTCCTTATGACAAGAACATT-3′ (SEQ ID NO:2)
- proliferation / growth [6]: reduced proliferation
- SCD1 mRNA expression levels (SCD1 [7]): reduced SCD1 mRNA expression levels
- SCD1 polypeptide expression levels (SCD1 [7]): reduced SCD1 polypeptide expression levels
- apoptosis by PARP cleavage [8]: induction of apoptosis
- SCD1 mRNA expression levels (SCD1 [9]): reduced SCD1 mRNA expression levels

Compound: CC(=O)O[C@H]1C(=O)[C@@]2(C)[C@H]([C@H](OC(=O)c3ccccc3)[C@]3(O)C[C@H](OC(=O)[C@H](O)[C@@H](NC(=O)c4ccccc4)c4ccccc4)C(C)=C1C3(C)C)[C@]1(OC(C)=O)CO[C@@H]1C[C@@H]2O [Taxol]
- growth inhibition [10]: growth inhibitory
- growth inhibition [11]: growth inhibitory
- growth inhibition [12]: growth inhibitory
- growth inhibition (FF1 cells): minimal growth inhibitory effects

Compound: N.N.[Cl][Pt][Cl] [Cisplatin]
- growth inhibition (T24 bladder cancer cells): minimal growth inhibitory effects
- growth inhibition [13]: minimal growth inhibitory effects
- growth inhibition [14]: minimal growth inhibitory effects

Compound: shSCD780: lentiviral construct expressing shRNA against SCD1, 5′-CTACGGCTCTTTCTGATCATT-3′ (SEQ ID NO:1)
- reporter activation with addition of OA-BSA ([15]; Caki1, + OA-BSA): significantly reduced reporter activation
- luciferase activity, fold change induction ([15]; Caki1, +BSA, 75 nM A939572 or shSCD780, 48 hours, vs DMSO and NT controls): 1.7 fold change
- proliferation / growth [6]: significant decreases in growth
- proliferation / growth ([6]; listed as SCD780): reduced proliferation
- SCD1 mRNA expression levels (SCD1 [7]): reduced SCD1 mRNA expression levels
- SCD1 polypeptide expression levels (SCD1 [7]): reduced SCD1 polypeptide expression levels
- reporter activation with addition of OA-BSA ([16]; A498, + OA-BSA): significantly reduced reporter activation
- luciferase activity, fold change induction ([16]; A498, +BSA, 75 nM A939572 or shSCD780, 48 hours, vs DMSO and NT controls): 2.0 fold change
- ER stress gene expression with addition of OA-BSA (Caki1 cells; Caki1, + OA-BSA): successfully blocked
- mRNA expression of ER stress genes BiP, CHOP, HERPUD1, GADD45a, CEBPβ (Caki1 cells; Caki1, vs DMSO+BSA or NT control): all of the ER stress genes were significantly induced
- ER stress gene expression with addition of OA-BSA (A498 cells; A498, + OA-BSA): successfully blocked
- mRNA expression of ER stress genes BiP, CHOP, HERPUD1, GADD45a, CEBPβ (A498 cells; A498, vs DMSO+BSA or NT control): 4 of the 5 were significantly induced
- protein expression of ER stress markers BiP, CHOP, spliced-XBP1 (Caki1 and A498 cells): amplified expression
- apoptosis by PARP cleavage [8]: induction of apoptosis
- SCD1 mRNA expression levels (SCD1 [9]): reduced SCD1 mRNA expression levels
